Test results from patent publication US3954764A, “Dibenzo [b,f]thiepins bearing piperazinyl substitution” (priority 1973, dated 1976).
“Also recorded” adds a separate entry of the source. Like-named read-outs stand apart in the source and are kept apart here.

Columns and labels:
mice = experiment: Rotating Rod Test; format: in vivo, mouse; conditions: for ED50: Mus musculus, po, read-out: ED50 (dose which reduces the holding on period by 50 percent); for Rotating Rod Test activity in words: compared with chlorpromazine
Protocol: In the Rotating Rod Test, the ability of mice to achieve a coordinated motor performance is investigated. After peroral administration of the test substance, the mice are placed upon a horizontal slowly rotating rod and the time they remain on the rod is recorded. The ED50 is that dose which reduces the holding on period of the mice by 50 percent as compared to the holding on period prior to the administration of the test substance.

rats [1] = experiment: "Pole Climbing" Test; format: in vivo, rat; conditions: for ED50: Rattus norvegicus, po, read-out: ED50 (blocking of the conditioned reaction); for neuroleptic action in words / quality (selectivity) of the neuroleptic action in words: compared with chlorpromazine
Protocol: (§1) This test provides information about behavioral reactions of rats. Rats are trained to avoid, by climbing up a vertical pole in the test chamber, an electrical impulse (unconditioned impulse) released via the wire-latticed floor some seconds after an acoustic signal (conditioned impulse).
(§2) The blocking of the conditioned reaction is determined by the parameter ED50 (mg/kg p.o.); the blocking of the unconditioned reaction is determined by a parameter ED10 (mg/kg. p.o.).
(§3) The parameter ED50 (blocking of the conditioned reaction) gives a measure of the neuroleptic strength of action of the test substance. The quotient ED10 (blocking of the unconditioned reaction)/ED50 (blocking of the conditioned reaction) gives a measure of the quality of action of the test substance since, with increasing quotient, a greater selectivity of the neuroleptic action (slighter neurotoxic side-effect) is present.

"Pole Climbing" Test = format: in vivo, rat; conditions: rat, in vivo, po; rats, p.o.; higher quotient = greater selectivity of neuroleptic action; read-out: Quotient ED10 (blocking of the unconditioned reaction) / ED50 (blocking of the conditioned reaction)
Protocol: as §1, §2, §3

rats [2] = experiment: Catalepsy test (i.p., rats; number of cataleptic animals recorded every 30 minutes over 6 hours); format: in vivo, rat
Protocol: (§4) The following compounds were tested:
(§5) The foregoing compounds were compared to chlorpromazine, a well-known central depressant, especially well known as a neuroleptic agent.
(§6) The test animals are considered to be cataleptic when the homolateral extremities remain in the crossed position for at least 10 seconds. The number of cataleptic animals is recorded every 30 minutes over a 6-hour period. The ED50 is the dose at which 50 percent of the animals are cataleptic.

[3] = as above; format: in vivo, rat; conditions: rat, in vivo, ip
Protocol: as §4, §5, §6

[4] = Acute toxicity in the mouse; conditions: in vivo, po
[5] = system: homovanillinic acid (turnover of dopamine in the basal ganglions); experiment: Determination of Homovanillinic Acid; format: in vivo, rat; conditions: rats; for Increase in HVA, percent: 2 hours before killing, untreated = 100 percent
Protocol: Two hours prior to being killed, rats are injected with the test substance.
Thereafter, the homovanillinic acid is extracted from the supernatant portion of a homogenized mixture of the brains of the treated rats into butyl acetate and later into an aqueous solution and is oxidized with potassium ferric cyanide to a fluorescent dimer. […] The homovanillinic acid titer in untreated rats is arbitrarily set at 100 percent.

[6] = rats, intraperitoneal, 6-hour period, read-out: ED50 (dose at which 50 percent of the animals are cataleptic)

| Compound | ED50 (mice) [mg/kg] | ED50 (rats [1]; rats, p.o.) [mg/kg] | selectivity ratio ("Pole Climbing" Test) | cataleptic activity in words (rats [2]; rat, in vivo) | TD50 at 6 h [3, 6] [mg/kg] | LD50 at 24 h [4] [mg/kg] | Increase in HVA, percent ([5]; 20 mg/kg p.o.) [%] | ED50 (mice; mice, peroral) [mg/kg] | Rotating Rod Test activity in words (mice; mice, peroral, maleate) | cataleptic activity in words (rats [2]; as compared to chlorpromazine) | HVA test activity in words [5] | Increase in HVA, percent ([5]; 50 mg/kg p.o.) [%] | Rotating Rod Test activity in words (mice; mice, peroral) | neuroleptic action in words (rats [1]; rats) | quality (selectivity) of the neuroleptic action in words (rats [1]; rats) | TD50 at 6 h [3] [mg/kg] | ED50 (rats [1]) [mg/kg] | Increase in HVA, percent ([5]; 45 mg/kg p.o.) [%] |
| --- | --- | --- | --- | --- | --- | --- | --- | --- | --- | --- | --- | --- | --- | --- | --- | --- | --- | --- |
| CN(C)CCCN1c2ccccc2Sc2ccc(Cl)cc21 [Chlorpromazine, reference compound] | 5 | 11.8 | 2.5 | does demonstrate cataleptic effect | 6 | 200 | 321 | – | – | – | – | – | – | – | – | – | – | – |
| Cc1ccc2c(c1)CC(N1CCN(CCN3CCCC3=O)CC1)c1cc(Cl)ccc1S2.O=C(O)/C=C\C(=O)O (stereo not drawn) [Product A, 1-{2-[4-(8-chloro-10,11-dihydro-2-methyl-dibenzo[b,f]thiepin-10-yl)-1-piperazinyl]-ethyl}-2-pyrrolidinone maleate] | – | – | – | – | > 100 | 3750 | – | 7.3 | strong activity; also recorded: approximates that of chlorpromazine | no cataleptic effect | nearly as potent as that of chlorpromazine | 295 | – | – | – | – | – | – |
| O=C(O)/C=C\C(=O)O.O=C1OCCN1CCN1CCN(C2Cc3cc(Cl)ccc3Sc3cc(F)ccc32)CC1 (stereo not drawn) [Product B, 3-{2-[4-(2-chloro-7-fluoro-10,11-dihydrodibenzo[b,f]thiepin-10-yl)-1-piperazinyl]-ethyl}-2-oxazolidinone maleate] | – | – | – | – | > 100 | 900 | – | – | – | no cataleptic effect | nearly as potent as that of chlorpromazine | 270 | – | – | – | – | – | – |
| Cc1ccc2c(c1)CC(N1CCN(CCN3CCOC3=O)CC1)c1cc(F)ccc1S2 (stereo not drawn) [Product C, 3-{2-[4-(8-fluoro-10,11-dihydro-2-methyl-dibenzo[b,f]thiepin-10-yl)-1-piperazinyl]-ethyl}-2-oxazolidinone] | – | 14 | 23 | – | – | 1880 | – | 2.1 | – | very weak cataleptic activity | – | 235 | strong activity; also recorded: superior to that of chlorpromazine | lies somewhat below that of chlorpromazine | substantially exceeds that of chlorpromazine | 75 | – | – |
| O=C(O)/C=C\C(=O)O.O=C1OCCN1CCN1CCN(C2Cc3cc(Cl)ccc3Sc3ccc(F)cc32)CC1 (stereo not drawn) [Product D, 3-{2-[4-(2-chloro-8-fluoro-10,11-dihydrodibenzo[b,f]thiepin-10-yl)-1-piperazinyl]-ethyl}-2-oxazolidinone maleate] | – | – | 7.6 | – | 45 | 450 | – | 1 | strong activity; also recorded: superior to that of chlorpromazine | considerably lower cataleptic activity | nearly as potent as that of chlorpromazine | – | – | lies somewhat below that of chlorpromazine | substantially exceeds that of chlorpromazine | – | 17 | 300 |
| CSc1ccc2c(c1)C(N1CCN(CCN3CCOC3=O)CC1)Cc1cc(C)ccc1S2.O=C(O)/C=C\C(=O)O (stereo not drawn) [Product E, 3-{2-[4-(10,11-dihydro-2-methyl-8-methylthiodibenzo[b,f]thiepin-10-yl)-1-piperazinyl]-ethyl}-2-oxazolidinone maleate] | – | – | 12 | – | 45 | 3750 | – | – | – | considerably lower cataleptic activity | – | 255 | – | lies somewhat below that of chlorpromazine | substantially exceeds that of chlorpromazine | – | 25 | – |
